Data from patent publication US7138361B2, “Herbicidal heterocycles” (E. I. du Pont de Nemours and Company, priority 2000, dated 2006).

Columns and labels:
Type in all cases: in vivo
[1] = test system: Surinam grass (Brachiaria decumbens); assay: Test B preemergence
In short: (§1)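 Visual injury scores, 0 = no effect to 100 = complete control, assigned against controls after 13 to 15 days in the greenhouse. Compounds formulated in non-phytotoxic solvent plus surfactant and applied to soil after planting (pre) or onto foliage of 1- to 4-leaf plants (post).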

[2] = test system: lambsquarters (Chenopodium album); assay: Test B preemergence
In short: as §1

[3] = test system: cocklebur (Xanthium strumarium); assay: Test B preemergence
In short: as §1

[4] = test system: morning glory (Ipomoea hederacea); assay: Test B preemergence
In short: as §1

corn (Zea mays) [5] = assay: Test B preemergence
In short: as §1

[6] = test system: barnyardgrass (Echinochloa crus-galli); assay: Test B preemergence
In short: as §1

[7] = test system: velvetleaf (Abutilon theophrasti); assay: Test B preemergence
In short: as §1

[8] = test system: crabgrass (Digitaria sanguinalis); assay: Test B preemergence
In short: as §1

[9] = test system: pigweed (Amaranthus retroflexus); assay: Test B preemergence
In short: as §1

rice (Oryza saliva) [10] = assay: Test B preemergence
In short: as §1

[11] = test system: giant foxtail (Setaria faberii); assay: Test B preemergence
In short: as §1

Sunflower = assay: Test C preemergence; conditions: Rate 250 g/ha, scale 0 to 100, 0 no effect, 100 complete control
Nightshade = assay: Test C preemergence; conditions: Rate 500 g/ha, visual evaluation after 12 to 14 days
[12] = test system: Surinam grass (Brachiaria decumbens); assay: Test B postemergence
In short: as §1

wild oat (Avena fatua) = assay: Test B postemergence
In short: as §1

[13] = test system: blackgrass (Alopecurus myosuroides); assay: Test B postemergence; conditions: 13 to 15 days
In short: as §1

[14] = test system: lambsquarters (Chenopodium album); assay: Test B postemergence
In short: as §1

[15] = test system: morning glory (Ipomoea hederacea); assay: Test B postemergence
In short: as §1

corn (Zea mays) [16] = assay: Test B postemergence
In short: as §1

[17] = test system: barnyardgrass (Echinochloa crus-galli); assay: Test B postemergence
In short: as §1

[18] = test system: velvetleaf (Abutilon theophrasti); assay: Test B postemergence
In short: as §1

[19] = test system: crabgrass (Digitaria sanguinalis); assay: Test B postemergence; conditions: 13 to 15 days
In short: as §1

[20] = test system: pigweed (Amaranthus retroflexus); assay: Test B postemergence
In short: as §1

[21] = test system: wheat (Triticum aestivum); assay: Test B postemergence
In short: as §1

[22] = test system: giant foxtail (Setaria faberii); assay: Test B postemergence
In short: as §1

rice (Oryza saliva) [23] = assay: Test C flooded paddy test; conditions: for Rice plant response rating: Flooded Paddy, scale 0 to 100, 0 no effect, 100 complete control; for Plant response rating, Rice: flooded paddy test, scale 0 to 100 (0 no effect, 100 complete control)
In short: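 Greenhouse-maintained for 12 to 14 days after treatment, the paddy plants (2-leaf stage at application) were scored visually against controls. A score of 0 denotes no effect and a score of 100 denotes complete control.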

[24] = test system: cocklebur (Xanthium strumarium); assay: Test B postemergence
In short: as §1

[25] = Preemergence, Rate 500 g/ha, scale 0 to 100, 0 no effect, 100 complete control
[26] = preemergence, Rate 125 g/ha, scale of 0 to 100 where 0 is no effect and 100 is complete control, 13 to 15 days
[27] = Rate 125 g/ha, scale 0 (no effect) to 100 (complete control), 13 to 15 days
[28] = Rate 500 g/ha, scale 0 to 100, 0 is no effect, 100 is complete control, 13 to 15 days
[29] = Rate 125 g/ha, scale 0 (no effect) to 100 (complete control)
[30] = Rate 500 g/ha, scale 0 to 100, 0 is no effect, 100 is complete control
[31] = Rate 125 g/ha, scale 0 to 100, 0 no effect, 100 complete control

## CCCC(C)c1ccn(C2CCN(c3cccc(C(F)(F)F)c3)C2=O)n1 (centres unmarked) [Compound 100]
[1]; [25]
  Plant response rating, Surinam grass: 20
[1]; [26]
  Plant response rating, Surinam grass: 0
[2]; [25]
  Plant response rating, Lambsquarters: 100
[2]; [26]
  Plant response rating, Lambsquarters: 100
[3]; [25]
  Plant response rating, Cocklebur: 0
[3]; [26]
  Plant response rating, Cocklebur: 0
[4]; [25]
  Plant response rating, Morningglory: 0
[4]; [26]
  Plant response rating, Morningglory: 0
Corn (Zea mays) [5]; [25]
  Plant response rating, Corn: 20
Corn (Zea mays) [5]; [26]
  Plant response rating, Corn: 0
[6]; [25]
  Plant response rating, Barnyardgrass: 100
[6]; [26]
  Plant response rating, Barnyardgrass: 0
[7]; [25]
  Plant response rating, Velvetleaf: 0
[7]; [26]
  Plant response rating, Velvetleaf: 0
[8]; [25]
  Plant response rating, Crabgrass: 100
[8]; [26]
  Plant response rating, Crabgrass: 0
[9]; [25]
  Plant response rating, Pigweed: 100
[9]; [26]
  Plant response rating, Pigweed: 70
Rice (Oryza saliva) [10]; [25]
  Plant response rating, Rice: 20
Rice (Oryza saliva) [10]; [26]
  Plant response rating, Rice: 0
[11]; [25]
  Plant response rating, Foxtail, Giant: 70
[11]; [26]
  Plant response rating, Foxtail, Giant: 0
Sunflower
  Plant response rating, Sunflower: 0
Nightshade
  Plant response rating (0 to 100), Nightshade: 0
[12]; [27]
  Plant response rating, Surinam grass: 0
[12]; [28]
  Plant response rating, Surinam grass: 0
Wild oat (Avena fatua); [28]
  Plant response rating, Wild Oat: 0
[13]; [29]
  Plant response rating, Blackgrass: 0
[13]; [30]
  Plant response rating, Blackgrass: 0
[14]; [28]
  Plant response rating, Lambsquarters: 80
[15]; [28]
  Plant response rating, Morningglory: 0
Corn (Zea mays) [16]; [27]
  Plant response rating, Corn: 0
Corn (Zea mays) [16]; [28]
  Plant response rating, Corn: 0
[17]; [27]
  Plant response rating, Barnyardgrass: 0
[17]; [28]
  Plant response rating, Barnyardgrass: 0
[18]; [28]
  Plant response rating, Velvetleaf: 0
[19]; [29]
  Plant response rating, Crabgrass: 0
[19]; [30]
  Plant response rating, Crabgrass: 0
[20]; [28]
  Plant response rating, Pigweed: 0
[21]; [28]
  Plant response rating, Wheat: 0
[22]; [27]
  Plant response rating, Foxtail, Giant: 0
[22]; [28]
  Plant response rating, Foxtail, Giant: 0
Rice (Oryza saliva) [23]; Rate 250 g/ha
  Rice plant response rating: 50
Rice (Oryza saliva) [23]; Rate 500 g/ha
  Rice plant response rating: 80
Rice (Oryza saliva) [23]; Rate 62 g/ha
  Plant response rating, Rice: 0
Rice (Oryza saliva) [23]; Rate 125 g/ha
  Plant response rating, Rice: 50

## Cc1ccc(N2CCC(n3ccc(C(C)(C)C)n3)C2=O)cc1I (centres unmarked) [Compound 122]
[1]; [25]
  Plant response rating, Surinam grass: 70
[1]; [26]
  Plant response rating, Surinam grass: 50
[2]; [25]
  Plant response rating, Lambsquarters: 100
[2]; [26]
  Plant response rating, Lambsquarters: 100
[3]; [25]
  Plant response rating, Cocklebur: 0
[3]; [26]
  Plant response rating, Cocklebur: 0
[4]; [25]
  Plant response rating, Morningglory: 0
[4]; [26]
  Plant response rating, Morningglory: 0
Corn (Zea mays) [5]; [25]
  Plant response rating, Corn: 0
Corn (Zea mays) [5]; [26]
  Plant response rating, Corn: 0
[6]; [25]
  Plant response rating, Barnyardgrass: 100
[6]; [26]
  Plant response rating, Barnyardgrass: 0
[7]; [25]
  Plant response rating, Velvetleaf: 0
[7]; [26]
  Plant response rating, Velvetleaf: 0
[8]; [25]
  Plant response rating, Crabgrass: 100
[8]; [26]
  Plant response rating, Crabgrass: 100
[9]; [25]
  Plant response rating, Pigweed: 100
[9]; [26]
  Plant response rating, Pigweed: 100
Rice (Oryza saliva) [10]; [25]
  Plant response rating, Rice: 0
Rice (Oryza saliva) [10]; [26]
  Plant response rating, Rice: 0
[11]; [25]
  Plant response rating, Foxtail, Giant: 30
[11]; [26]
  Plant response rating, Foxtail, Giant: 20
Sunflower
  Plant response rating, Sunflower: 0
Nightshade
  Plant response rating (0 to 100), Nightshade: 90
[12]; [31]
  Plant response rating, Surinam grass: 0
[12]; [28]
  Plant response rating, Surinam grass: 0
Wild oat (Avena fatua); [31]
  Plant response rating, Wild Oat: 0
[14]; [31]
  Plant response rating, Lambsquarters: 90
[24]; [31]
  Plant response rating, Cocklebur: 30
[24]; [28]
  Plant response rating, Cocklebur: 90
[15]; [31]
  Plant response rating, Morningglory: 20
Corn (Zea mays) [16]; [31]
  Plant response rating, Corn: 0
Corn (Zea mays) [16]; [28]
  Plant response rating, Corn: 0
[17]; [31]
  Plant response rating, Barnyardgrass: 0
[17]; [28]
  Plant response rating, Barnyardgrass: 0
[18]; [31]
  Plant response rating, Velvetleaf: 0
[20]; [31]
  Plant response rating, Pigweed: 30
[21]; [31]
  Plant response rating, Wheat: 0
[22]; [31]
  Plant response rating, Foxtail, Giant: 0
Rice (Oryza saliva) [23]; Rate 250 g/ha
  Rice plant response rating: 0
Rice (Oryza saliva) [23]; Rate 500 g/ha
  Rice plant response rating: 0
Rice (Oryza saliva) [23]; Rate 62 g/ha
  Plant response rating, Rice: 0
Rice (Oryza saliva) [23]; Rate 125 g/ha
  Plant response rating, Rice: 0
